{"source": "patent US20140296216A1", "about": "“PYRIMIDO[4,5-D]PYRIMIDINYL COMPOUNDS, PHARMACEUTICAL COMPOSITIONS AND USES THEREOF” (GUANGZHOU INSTITUTE OF BIOMEDICINE AND HEALTH, CHINESE …, priority 2011, published 2014)", "key": {"[1]": {"test_system": "EGFR phosphorylation in H1975 Cell", "test": "Western Blot, cell signaling pathway in H1975 cell", "assay_type": "cell-based", "details": "FIG. 30", "method": "Conventional Western Blot (Immune blotting method) was used, wherein the method includes four steps: sample preparation, electrophoretic separation, film transfer of protein, and immuno hybridization and color display (protein detection). Sample preparation • 1. culturing cells or treating the cells with drugs; • 2. discarding mediums, washing the cells with 1×PBS twice to completely remove the mediums; • 3. adding 1×SDS sample buffer (6-well plate, 100 μl/w or 75 cm^2 plate, 500-1000 μl/bottle), scrapping the cells and transferring them to Ep tube; • 4. ultrasonic shearing DNA for 10-15 seconds to reduce the viscosity of the sample; • 5. boiling the sample for 5 minutes; • 6. centrifuging 12000 g sample for 5 minutes and taking the supernatant. […]"}, "EGFRWT": {"biological_target": "EGFRWT (Homo sapiens, UniProt P00533)", "sequence (P00533 25-1210)": "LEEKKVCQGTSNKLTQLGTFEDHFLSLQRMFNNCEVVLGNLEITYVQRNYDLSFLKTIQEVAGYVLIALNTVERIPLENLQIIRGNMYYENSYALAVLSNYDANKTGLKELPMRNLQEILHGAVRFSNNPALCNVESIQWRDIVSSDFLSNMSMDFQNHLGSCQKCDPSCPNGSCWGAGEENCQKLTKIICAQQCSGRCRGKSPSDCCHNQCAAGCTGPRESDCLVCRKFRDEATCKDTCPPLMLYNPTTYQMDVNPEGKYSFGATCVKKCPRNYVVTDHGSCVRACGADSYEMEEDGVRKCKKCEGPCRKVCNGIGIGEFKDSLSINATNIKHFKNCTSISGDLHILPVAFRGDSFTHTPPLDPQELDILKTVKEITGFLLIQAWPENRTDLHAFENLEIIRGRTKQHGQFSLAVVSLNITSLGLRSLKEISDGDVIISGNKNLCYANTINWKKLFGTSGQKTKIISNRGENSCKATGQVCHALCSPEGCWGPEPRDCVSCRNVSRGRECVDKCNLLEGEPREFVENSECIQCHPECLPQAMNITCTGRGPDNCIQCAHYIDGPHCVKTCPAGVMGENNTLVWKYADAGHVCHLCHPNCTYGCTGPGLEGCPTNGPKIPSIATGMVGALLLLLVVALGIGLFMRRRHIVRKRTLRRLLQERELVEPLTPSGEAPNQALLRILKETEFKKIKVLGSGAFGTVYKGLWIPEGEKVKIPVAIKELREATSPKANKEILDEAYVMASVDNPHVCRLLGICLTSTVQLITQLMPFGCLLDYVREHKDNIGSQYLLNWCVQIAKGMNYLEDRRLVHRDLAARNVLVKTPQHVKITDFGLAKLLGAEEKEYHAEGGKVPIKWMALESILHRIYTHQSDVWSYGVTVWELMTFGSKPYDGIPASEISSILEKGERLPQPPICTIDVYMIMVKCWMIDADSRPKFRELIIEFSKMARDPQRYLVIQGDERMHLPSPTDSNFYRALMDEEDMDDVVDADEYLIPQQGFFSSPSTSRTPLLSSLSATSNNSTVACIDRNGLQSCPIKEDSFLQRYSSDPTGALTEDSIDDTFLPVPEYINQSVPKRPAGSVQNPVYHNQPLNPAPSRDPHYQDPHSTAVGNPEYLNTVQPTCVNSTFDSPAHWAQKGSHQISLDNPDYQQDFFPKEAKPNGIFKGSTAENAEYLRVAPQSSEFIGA", "test": "In vitro enzymatic activity assay (Z'-LYTE), wild type EGFR", "assay_type": "biochemical", "details": "Z'-LYTE FRET peptide assay; read-out: EGFRWT kinase activity (IC50)", "procedure,_shortened": "(§1)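 Z'-LYTE FRET coupled-enzyme format: kinase phosphorylates FRET peptide substrate, then after one hour a site-specific protease cleaves non-phosphorylated peptide. After another hour, excitation at 400 nm and emission read at 445 and 520 nm.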"}, "[2]": {"test_system": "NCI-H820 (lung cancer cells)", "test": "Cell proliferation by MTT, NCI-H820", "assay_type": "cell-based", "details": "NCI-H820, read-out: NCI-H820 50% inhibitory concentration (IC50), 72 h"}, "H1975 cell [3]": {"test_system": "H1975 cell", "test": "Effect on cell apoptosis by Annexin V", "assay_type": "cell-based", "details": "PE-Annexin V, 24, 48 h; FIG. 29", "method": "Detecting the effect of the compounds on cell apoptosis by Annexin V: 8×10^5 cells/well, NCI-H820, A431, HCC827, EGFR E746-A750 deletion, H1975 were plated in 6-well plates, and 24 h later, treated with the compounds at various concentrations and a control (1% DMSO) for 24, 48 h. Growth medium was collected and cells were trypsined and collected correspondingly to the medium. Suspension (500 g) was centrifuged for 10 minutes. The cells were re-suspended in PBS to get a suspension and then the suspension (500 g) centrifuged for 10 min; this step was repeated twice. The cells were re-suspended in binding buffer, 5×10^5-1×10^6 cells/mL. PE-Annexin V (556421, BD Pharmingen) […] respectively. The cells were incubated for 15 min at RT in the dark. The samples were detected with FACS Calibur flow cytometer (Becton Dickinson)."}, "[4]": {"test_system": "A431 (Human epidermal carcinoma, EGFR high expression)", "test": "Cell proliferation by MTT, A431", "assay_type": "cell-based", "details": "A-431, read-out: A431 50% inhibitory concentration (IC50), 72 h"}, "[5]": {"test_system": "HCC827 (lung cancer cells, EGFR E746-A750 deletion)", "test": "Cell proliferation by MTT, HCC827", "assay_type": "cell-based", "details": "Homo sapiens, HCC827, read-out: HCC827 50% inhibitory concentration (IC50), 72 h"}, "EGFRL858R + T790M": {"biological_target": "EGFRL858R + T790M (Homo sapiens, UniProt P00533, L858R/T790M)", "test": "In vitro enzymatic activity assay (Z'-LYTE), EGFR L858R + T790M", "assay_type": "biochemical", "details": "Z'-LYTE FRET peptide assay; read-out: EGFRL858R + T790M kinase activity (IC50)", "procedure,_shortened": "as §1"}, "H1975 cell [6]": {"test_system": "H1975 cell", "test": "Effect on cell cycle by PI", "assay_type": "cell-based", "details": "PI staining, 24, 48 h; FIGS. 27, 28", "method": "Detecting the effect of the compounds on cell cycle by PI: 8×10^5 cells/well, NCI-H820, A431, HCC827, EGFR E746-A750 deletion, H1975 were plated in 6-well plates, and 24 h later, treated with the compounds at various concentrations and a control (1% DMSO) for 24, 48 h. Cells were trypsined, collected and then centrifuged for 10 minutes. The cells were re-suspended in PBS to get a suspension and then the suspension (500 g) centrifuged for 10 min; this step was repeated twice: firstly 300 uL pre-cooled PBS was added and mixed, then 700 uL pre-cooled (i.e. −20° C.) anhydrous ethanol was added and mixed, placed in −20° C. for 24 h. The mixture was 5000 rpm centrifuged for 2 min, washed by PBS twice, resuspended with 200 uL PBS (it needs to ensure the cell concentration as about […]), added RNase to achieve the final concentration of 50 ug/mL, and […] at 37° C. for 30 min. The mixture was added PI achieve the final concentration of 10 ug/mL, dyed in dark for 30 min, and then detected within 1 h."}, "EGFR T790M kinase": {"biological_target": "T1, EGFR T790M kinase (Homo sapiens, UniProt P00533, T790M)", "T1 construct": "purchased invitrogen PV4803", "T1 sequence (P00533 25-1210 T790M)": "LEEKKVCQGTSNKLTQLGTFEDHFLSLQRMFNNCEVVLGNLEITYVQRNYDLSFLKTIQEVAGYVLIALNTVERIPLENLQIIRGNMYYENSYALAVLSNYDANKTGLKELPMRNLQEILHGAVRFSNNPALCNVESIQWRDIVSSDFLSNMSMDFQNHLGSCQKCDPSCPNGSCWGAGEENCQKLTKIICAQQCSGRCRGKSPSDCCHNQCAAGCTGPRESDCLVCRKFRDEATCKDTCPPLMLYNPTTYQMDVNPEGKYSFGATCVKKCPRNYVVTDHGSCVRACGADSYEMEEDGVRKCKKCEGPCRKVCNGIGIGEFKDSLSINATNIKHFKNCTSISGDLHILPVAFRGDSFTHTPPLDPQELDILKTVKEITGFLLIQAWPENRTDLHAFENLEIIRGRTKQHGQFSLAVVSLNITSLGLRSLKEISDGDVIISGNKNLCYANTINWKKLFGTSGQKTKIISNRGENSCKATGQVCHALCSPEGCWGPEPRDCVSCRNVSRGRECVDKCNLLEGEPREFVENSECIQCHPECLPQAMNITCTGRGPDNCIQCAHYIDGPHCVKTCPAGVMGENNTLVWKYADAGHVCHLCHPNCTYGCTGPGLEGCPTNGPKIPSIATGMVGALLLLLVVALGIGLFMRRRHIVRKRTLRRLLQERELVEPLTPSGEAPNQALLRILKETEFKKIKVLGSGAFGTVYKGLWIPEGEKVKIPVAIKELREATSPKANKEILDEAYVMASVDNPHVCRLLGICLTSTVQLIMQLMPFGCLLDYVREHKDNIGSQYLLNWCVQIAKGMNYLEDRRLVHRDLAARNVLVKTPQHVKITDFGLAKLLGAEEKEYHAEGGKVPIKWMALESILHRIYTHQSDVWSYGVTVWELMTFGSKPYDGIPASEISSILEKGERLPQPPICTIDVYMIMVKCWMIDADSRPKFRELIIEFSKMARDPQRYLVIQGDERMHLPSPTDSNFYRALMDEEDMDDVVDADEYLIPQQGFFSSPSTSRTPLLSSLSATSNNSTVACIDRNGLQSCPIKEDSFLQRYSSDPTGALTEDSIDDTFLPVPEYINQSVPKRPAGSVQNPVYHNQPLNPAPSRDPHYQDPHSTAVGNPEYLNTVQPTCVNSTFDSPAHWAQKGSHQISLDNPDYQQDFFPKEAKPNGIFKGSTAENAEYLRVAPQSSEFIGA", "test": "In vitro enzymatic activity assay (Z'-LYTE), EGFR T790M", "assay_type": "biochemical", "details": "Z'-LYTE FRET peptide assay; read-out: EGFRT790M kinase activity (IC50)", "procedure,_shortened": "as §1"}, "EGFRL861Q": {"biological_target": "EGFRL861Q (Homo sapiens, UniProt P00533, L861Q)", "sequence (P00533 25-1210 L861Q)": "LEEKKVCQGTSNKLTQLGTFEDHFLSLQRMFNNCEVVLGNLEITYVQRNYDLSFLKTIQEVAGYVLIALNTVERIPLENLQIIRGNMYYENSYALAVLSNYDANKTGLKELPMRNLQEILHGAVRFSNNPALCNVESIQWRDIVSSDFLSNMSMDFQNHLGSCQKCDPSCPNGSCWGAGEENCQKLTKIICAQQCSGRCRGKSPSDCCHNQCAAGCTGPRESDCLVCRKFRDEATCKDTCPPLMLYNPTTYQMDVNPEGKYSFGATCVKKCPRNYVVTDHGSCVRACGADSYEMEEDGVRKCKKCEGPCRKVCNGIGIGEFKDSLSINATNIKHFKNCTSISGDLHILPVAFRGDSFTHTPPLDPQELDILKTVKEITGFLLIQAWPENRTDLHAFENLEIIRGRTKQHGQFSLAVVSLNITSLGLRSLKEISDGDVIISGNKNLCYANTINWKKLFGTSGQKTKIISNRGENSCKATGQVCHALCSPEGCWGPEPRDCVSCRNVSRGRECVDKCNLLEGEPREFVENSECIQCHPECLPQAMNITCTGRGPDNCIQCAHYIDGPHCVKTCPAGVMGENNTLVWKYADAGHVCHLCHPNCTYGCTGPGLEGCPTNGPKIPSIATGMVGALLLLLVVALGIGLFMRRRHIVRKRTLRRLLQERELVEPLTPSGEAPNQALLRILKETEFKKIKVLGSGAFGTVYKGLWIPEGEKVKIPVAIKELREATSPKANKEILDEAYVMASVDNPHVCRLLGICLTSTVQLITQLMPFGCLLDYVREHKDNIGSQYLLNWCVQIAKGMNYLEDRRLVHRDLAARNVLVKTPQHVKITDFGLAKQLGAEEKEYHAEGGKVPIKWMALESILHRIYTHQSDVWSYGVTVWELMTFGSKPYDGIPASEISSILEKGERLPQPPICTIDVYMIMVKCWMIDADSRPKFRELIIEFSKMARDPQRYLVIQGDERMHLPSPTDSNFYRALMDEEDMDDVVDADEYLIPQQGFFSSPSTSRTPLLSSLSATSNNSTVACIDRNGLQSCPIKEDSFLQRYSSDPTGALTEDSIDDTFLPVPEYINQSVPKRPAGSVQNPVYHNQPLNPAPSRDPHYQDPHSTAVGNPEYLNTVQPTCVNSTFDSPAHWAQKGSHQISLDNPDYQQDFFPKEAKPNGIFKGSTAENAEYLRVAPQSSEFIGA", "test": "In vitro enzymatic activity assay (Z'-LYTE), EGFR L861Q", "assay_type": "biochemical", "details": "Z'-LYTE FRET peptide assay; read-out: EGFRL861Q kinase activity (IC50)", "procedure,_shortened": "as §1"}, "EGFRL858R": {"biological_target": "EGFRL858R (Homo sapiens, UniProt P00533, L858R)", "sequence (P00533 25-1210 L858R)": "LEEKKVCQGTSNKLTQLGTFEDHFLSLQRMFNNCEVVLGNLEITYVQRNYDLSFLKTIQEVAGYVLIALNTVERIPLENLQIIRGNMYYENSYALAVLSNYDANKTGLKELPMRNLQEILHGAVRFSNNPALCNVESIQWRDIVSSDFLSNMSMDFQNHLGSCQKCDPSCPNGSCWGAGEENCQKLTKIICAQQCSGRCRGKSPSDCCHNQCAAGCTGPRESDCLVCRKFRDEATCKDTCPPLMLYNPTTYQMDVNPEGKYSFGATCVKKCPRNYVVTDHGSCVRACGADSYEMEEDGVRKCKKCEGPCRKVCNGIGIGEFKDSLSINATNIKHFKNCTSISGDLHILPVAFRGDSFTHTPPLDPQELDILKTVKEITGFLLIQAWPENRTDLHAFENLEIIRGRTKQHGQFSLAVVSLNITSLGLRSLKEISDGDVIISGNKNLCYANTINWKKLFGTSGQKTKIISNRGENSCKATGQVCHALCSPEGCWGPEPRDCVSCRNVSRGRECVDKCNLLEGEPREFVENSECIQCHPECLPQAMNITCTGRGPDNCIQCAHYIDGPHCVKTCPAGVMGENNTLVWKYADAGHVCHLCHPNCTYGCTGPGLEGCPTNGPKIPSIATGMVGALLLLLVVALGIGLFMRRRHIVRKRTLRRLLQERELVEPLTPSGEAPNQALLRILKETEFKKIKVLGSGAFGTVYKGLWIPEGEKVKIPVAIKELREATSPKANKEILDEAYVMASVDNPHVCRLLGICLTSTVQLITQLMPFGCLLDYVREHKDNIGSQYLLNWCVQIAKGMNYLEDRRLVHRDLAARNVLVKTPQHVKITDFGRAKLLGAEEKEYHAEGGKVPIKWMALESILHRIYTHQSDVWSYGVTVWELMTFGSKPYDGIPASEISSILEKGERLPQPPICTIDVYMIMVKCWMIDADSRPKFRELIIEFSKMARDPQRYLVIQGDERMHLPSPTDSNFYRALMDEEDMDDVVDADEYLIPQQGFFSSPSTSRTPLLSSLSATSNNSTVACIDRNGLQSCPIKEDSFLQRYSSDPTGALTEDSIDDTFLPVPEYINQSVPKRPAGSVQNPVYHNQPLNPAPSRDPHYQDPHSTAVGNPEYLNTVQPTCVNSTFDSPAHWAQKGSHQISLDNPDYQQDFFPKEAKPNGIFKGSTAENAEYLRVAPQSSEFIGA", "test": "In vitro enzymatic activity assay (Z'-LYTE), EGFR L858R", "assay_type": "biochemical", "details": "Z'-LYTE FRET peptide assay; read-out: EGFRL858R kinase activity (IC50)", "procedure,_shortened": "as §1"}, "[7]": {"test_system": "H1975 (lung cancer cells, EGFR L858R&T790M)", "test": "Cell proliferation by MTT, H1975", "assay_type": "cell-based", "details": "Homo sapiens, NCI-H1975, read-out: H1975 50% inhibitory concentration (IC50), 72 h"}}}
{"smiles": "C=CC(=O)Nc1cccc(N2C(=O)N(C)Cc3cnc(Nc4ccc(N5CCN(C)CC5)cc4OC)nc32)c1", "note": "[C-EGF06, N-(3-(7-(2-methoxy-4-(4-methylpiperazin-1-yl)phenylamino)-3-methyl-2-oxo-3,4-dihydropyrimido[4,5-d]pyrimidin-1(2H)-yl)phenyl)acrylamide]", "values": [{"measurement": "EGFR phosphorylation arrest", "setting": "[1]", "value": "significantly induce EGFR phosphorylation arrest"}, {"measurement": "downstream pathway phosphorylation", "setting": "[1]", "value": "further block"}, {"measurement": "IC50", "setting": "EGFRWT", "value": "≤ 10", "unit": "nM"}, {"measurement": "IC50", "setting": "[2]", "value": "> 100000", "unit": "nM"}, {"measurement": "cell apoptosis", "setting": "H1975 cell [3]", "value": "significantly induce"}, {"measurement": "IC50", "setting": "[4]", "value": 2930, "unit": "nM"}, {"measurement": "IC50", "setting": "[5]", "value": 52, "unit": "nM"}, {"measurement": "IC50", "setting": "EGFRL858R + T790M", "value": "≤ 10", "unit": "nM"}, {"measurement": "cell cycle arrest", "setting": "H1975 cell [6]", "value": "significantly induce"}, {"measurement": "IC50", "setting": "EGFR T790M kinase", "value": "≤ 10", "unit": "nM"}, {"measurement": "IC50", "setting": "EGFRL861Q", "value": "≤ 10", "unit": "nM"}, {"measurement": "IC50", "setting": "EGFRL858R", "value": "≤ 10", "unit": "nM"}, {"measurement": "IC50", "setting": "[7]", "value": 85, "unit": "nM"}]}
